The IC50 is the concentration that inhibits the measured activity by half.

Like-named read-outs stand apart in the source and are kept apart here.

The results in this text go back to US8779142B2, “Azabicyclo compound and salt thereof” (Taiho Pharmaceutical Co., Ltd., priority 2009, dated 2014).

Test [1] deals with human HSP90 alpha protein (HSP90 N-terminal protein, amino acids 2-236) (Homo sapiens (Human), UniProt P07900). Briefly: Measurement of HSP90-binding activity (AlphaScreen competitive assay, biotin-labeled geldanamycin). The following applies: read-out: HSP-binding activity IC50. Background: Bead proximity is the source of the signal in Alpha formats.
The subject of a further test is SK-BR-3 cells. Briefly: Measurement of cell growth inhibition (crystal violet staining method). The format is cell-based.
Where [2] appears, read: concentration inhibiting binding of biotin-labeled geldanamycin (40 nM) to purified HSP90 to 50% of control.
[3] abbreviates: Homo sapiens, breast cancer SK-BR-3 cells, 72 hr culture with test substance.

For the compound `CC(C)c1nn(-c2ccc(C(N)=O)c(N[C@H]3CC[C@H](O)CC3)c2)c2ccnc(-c3cnc4ccccc4c3)c12` [Example 4, 2-(Trans-4-hydroxycyclohexylamino)-4-{3-isopropyl-4-(quinolin-3-yl)-1H-pyrazolo[4,3-c]pyridin-1-yl}benzamide], the IC50 in test [1] worked out at 1600 nM; in the test with SK-BR-3 cells (Homo sapiens, SK-BR-3, 72 h) it was 820 nM.
`NC(=O)c1ccc(-n2nc(C(F)(F)F)c3c(-n4cnc(-c5cccnc5)c4)ccnc32)c(N)c1` [Example 177, 3-Amino-4-{4-(4-(pyridin-3-yl)-1H-imidazol-1-yl)-3-(trifluoromethyl)-1H-pyrazolo[3,4-b]pyridin-1-yl}benzamide]: the IC50 in test [1] (setting [2]) came to 270 nM; in the test with SK-BR-3 cells (setting [3]), 390 nM.
In the case of `Cn1cc(-c2cn(-c3ccnc4c3c(C(F)(F)F)nn4-c3ccc(C(N)=O)cc3F)cn2)cn1` [Example 171, 3-Fluoro-4-{4-(4-(1-methyl-1H-pyrazol-4-yl)-1H-imidazol-1-yl)-3-(trifluoromethyl)-1H-pyrazolo[3,4-b]pyridin-1-yl}benzamide], the IC50 in test [1] (setting [2]) worked out at 100 nM; in the test on SK-BR-3 cells (setting [3]) it was 130 nM.
For the compound `CCCc1cc(C(N)=O)ccc1-n1nc(C(C)C)c2c(-n3cnc(-c4cnn(C)c4)c3)ccnc21` [Example 103, 4-{3-Isopropyl-4-(4-(1-methyl-1H-pyrazol-4-yl)-1H-imidazol-1-yl)-1H-pyrazolo[3,4-b]pyridin-1-yl}-3-propylbenzamide], the IC50 in test [1] (setting [2]) was found to be 120 nM; with SK-BR-3 cells (setting [3]), 170 nM.
Consider `C=C(C)c1cc(C(N)=O)ccc1-n1nc(C(F)(F)F)c2c(-n3cnc(-c4cnn(C)c4)c3)ccnc21` [Example 174, 4-{4-(4-(1-Methyl-1H-pyrazol-4-yl)-1H-imidazol-1-yl)-3-(trifluoromethyl)-1H-pyrazolo[3,4-b]pyridin-1-yl}-3-(prop-1-en-2-yl)benzamide], for which the IC50 in test [1] (setting [2]) stood at 320 nM; with SK-BR-3 cells (setting [3]), 380 nM.
For `CCNc1cc(-n2nc(C(C)C)c3c(-n4cnc(-c5cnn(C(F)F)c5)c4)ccnc32)ccc1C(N)=O` [Example 147, 4-{4-(4-(1-(Difluoromethyl)-1H-pyrazol-4-yl)-1H-imidazol-1-yl)-3-isopropyl-1H-pyrazolo[3,4-b]pyridin-1-yl}-2-(ethylamino)benzamide] the same measures were 810 nM and 360 nM.
For `COc1cncc(-c2ccnc3c2c(C(C)C)nn3-c2ccc(C(N)=O)c(N[C@H]3CC[C@H](O)CC3)c2)c1` [Example 11, 2-(Trans-4-hydroxycyclohexylamino)-4-{3-isopropyl-4-(5-methoxypyridin-3-yl)-1H-pyrazolo[3,4-b]pyridin-1-yl}benzamide] the same measures were 550 nM and 160 nM.
On to `CC(C)NC(=O)c1ccc(-c2cn(-c3ccnc4c3c(C(C)C)nn4-c3ccc(C(N)=O)cc3Cl)cn2)cc1` [Example 150, 4-{1-(1-(4-Carbamoyl-2-chlorophenyl)-3-isopropyl-1H-pyrazolo[3,4-b]pyridin-4-yl)-1H-imidazol-4-yl}-N-isopropylbenzamide], for which the 50% inhibitory concentration (IC50) in test [1] (setting [2]) stood at 930 nM; in the test on SK-BR-3 cells (setting [3]), 1330 nM.
For `CCc1cn(-c2ccc(C(N)=O)c(NCCN3CCOCC3)c2)c2nccc(-c3cnc4ccccc4c3)c12` [Example 73, 4-{3-Ethyl-4-(quinolin-3-yl)-1H-pyrrolo[2,3-b]pyridin-1-yl}-2-(2-morpholinoethylamino)benzamide] the same measures were 590 nM and 360 nM.
As for `Cc1cc(-n2nc(C(C)C)c3c(-c4cnc5ccccc5c4)ccnc32)ccc1C(N)=O` [Example 81, 4-{3-Isopropyl-4-(quinolin-3-yl)-1H-pyrazolo[3,4-b]pyridin-1-yl}-2-methylbenzamide], the IC50 in test [1] (setting [2]) stood at 1030 nM; in the test with SK-BR-3 cells (setting [3]), 630 nM.
`CC(C)c1nn(-c2ccc(C(N)=O)cc2Cl)c2nccc(-n3cnc(-c4cnn(C)c4)c3)c12` [Example 99, 3-Chloro-4-{3-isopropyl-4-(4-(1-methyl-1H-pyrazol-4-yl)-1H-imidazol-1-yl)-1H-pyrazolo[3,4-b]pyridin-1-yl}benzamide]: the figures for the IC50 (in test [1] (setting [2]); in the test with SK-BR-3 cells (setting [3])) were 520 nM and 690 nM, respectively.
`CC(C)n1cc(-c2cn(-c3ccnc4c3c(C(F)(F)F)nn4-c3ccc(C(N)=O)cc3N)cn2)cn1` [Example 186, 3-Amino-4-{4-(4-(1-isopropyl-1H-pyrazol-4-yl)-1H-imidazol-1-yl)-3-(trifluoromethyl)-1H-pyrazolo[3,4-b]pyridin-1-yl}benzamide]: the half-maximal inhibitory concentration (IC50) in test [1] (setting [2]) was found to be 800 nM; in the test on SK-BR-3 cells (setting [3]) it was 1930 nM.
As to `CC(C)c1nn(-c2ccc(C(N)=O)cc2C#N)c2nccc(-n3cnc(-c4cnn(C)c4)c3)c12` [Example 124, 3-Cyano-4-{3-isopropyl-4-(4-(1-methyl-1H-pyrazol-4-yl)-1H-imidazol-1-yl)-1H-pyrazolo[3,4-b]pyridin-1-yl}benzamide], the IC50 in test [1] (setting [2]) was found to be 350 nM; in the test on SK-BR-3 cells (setting [3]), 590 nM.
Take `CC(C)c1nn(-c2ccc(C(N)=O)c(N[C@H]3CC[C@H](O)CC3)c2)c2nccc(-c3cnc4c(c3)CCCC4)c12` [Example 19, 2-(Trans-4-hydroxycyclohexylamino)-4-{3-isopropyl-4-(5,6,7,8-tetrahydroquinolin-3-yl)-1H-pyrazolo[3,4-b]pyridin-1-yl}benzamide]: the values for the IC50 (in test [1] (setting [2]); in the test with SK-BR-3 cells (setting [3])) were 1190 nM and 470 nM, respectively.
On the same counts, the results for `CCNc1cc(C(N)=O)ccc1-n1nc(C(F)(F)F)c2c(-n3cnc(-c4cccnc4)c3)ccnc21` [Example 180, 3-(Ethylamino)-4-{4-(4-(pyridin-3-yl)-1H-imidazol-1-yl)-3-(trifluoromethyl)-1H-pyrazolo[3,4-b]pyridin-1-yl}benzamide] are 190 nM and 140 nM.
For `CC(C)Nc1cc(-n2nc(C(C)C)c3c(-n4cnc(-c5cnn(C)c5)c4)ccnc32)ccc1C(N)=O` [Example 111, 4-{3-Isopropyl-4-(4-(1-methyl-1H-pyrazol-4-yl)-1H-imidazol-1-yl)-1H-pyrazolo[3,4-b]pyridin-1-yl}-2-(isopropylamino)benzamide] the same measures were 190 nM and 80 nM.
On the same counts, the results for `CC(C)c1nn(-c2ccc(C(N)=O)cc2Cl)c2nccc(-c3cnc4ccccc4c3)c12` [Example 38, 3-Chloro-4-{3-isopropyl-4-(quinolin-3-yl)-1H-pyrazolo[3,4-b]pyridin-1-yl}benzamide] are 510 nM and 670 nM.
On to `Cc1cn(-c2ccc(C(N)=O)c(N[C@@H]3CCCC[C@H]3N)c2)c2nccc(-c3cnc4ccccc4c3)c12` (relative stereo) [Example 64, 2-(Trans-2-aminocyclohexylamino)-4-{3-methyl-4-(quinolin-3-yl)-1H-pyrrolo[2,3-b]pyridin-1-yl}benzamide], for which the values for the IC50 (in test [1] (setting [2]); in the test on SK-BR-3 cells (setting [3])) were 420 nM and 590 nM, respectively.
As for `Cc1cn(-c2ccc(C(N)=O)c(NC3CCOCC3)c2)c2nccc(-c3cnc4ccccc4c3)c12` [Example 53, 2-(Tetrahydro-2H-pyran-4-ylamino)-4-{3-methyl-4-(quinolin-3-yl)-1H-pyrrolo[2,3-b]pyridin-1-yl}benzamide], the results for the half-maximal inhibitory concentration (IC50) (in test [1] (setting [2]); in the test with SK-BR-3 cells (setting [3])) were 350 nM and 200 nM, respectively.
For `CC(C)c1nn(-c2ccc(C(N)=O)c(N(O)C3CCCCC3)c2)c2nccc(-n3cnc(-c4cnn(C)c4)c3)c12` [Example 89, 2-(Hydroxycyclohexylamino)-4-{3-isopropyl-4-(4-(1-methyl-1H-pyrazol-4-yl)-1H-imidazol-1-yl)-1H-pyrazolo[3,4-b]pyridin-1-yl}benzamide] the same measures were 70 nM and 10 nM.
For `CC(C)c1nn(-c2ccc(C(N)=O)c(NC3CCC(O)CC3)c2)c2nccc(-n3cnc(-c4cnn(CCOCc5ccccc5)c4)c3)c12` (stereo not drawn) [Example 94, 4-{4-(4-(1-(Benzyloxyethyl)-1H-pyrazol-4-yl)-1H-imidazol-1-yl)-3-isopropyl-1H-pyrazolo[3,4-b]pyridin-1-yl}-2-(4-hydroxycyclohexylamino)benzamide] the same measures were 470 nM and 200 nM.
Regarding `CCNc1c(C(N)=O)ccc(-n2nc(C(C)C)c3c(-n4cnc(-c5cnn(C)c5)c4)ccnc32)c1CC` [Example 133, 3-Ethyl-2-(ethylamino)-4-{3-isopropyl-4-(4-(1-methyl-1H-pyrazol-4-yl)-1H-imidazol-1-yl)-1H-pyrazolo[3,4-b]pyridin-1-yl}benzamide], the half-maximal inhibitory concentration (IC50) in test [1] (setting [2]) was found to be 160 nM; in the test on SK-BR-3 cells (setting [3]), 150 nM.
Take `Cc1cn(-c2ccc(C(N)=O)c(N[C@H]3CC[C@H](O)CC3)c2)c2nccc(-c3cnc4ccccc4c3)c12` [Example 40, 2-(Trans-4-hydroxycyclohexylamino)-4-{3-methyl-4-(quinolin-3-yl)-1H-pyrrolo[2,3-b]pyridin-1-yl}benzamide]: the 50% inhibitory concentration (IC50) in test [1] (setting [2]) came to 270 nM; in the test on SK-BR-3 cells (setting [3]), 90 nM.
Turning to `CCNc1cc(C(N)=O)ccc1-n1nc(C(F)(F)F)c2c(-n3cnc(-c4cnn(C)c4)c3)ccnc21` [Example 162, 3-(Ethylamino)-4-{4-(4-(1-methyl-1H-pyrazol-4-yl)-1H-imidazol-1-yl)-3-(trifluoromethyl)-1H-pyrazolo[3,4-b]pyridin-1-yl}benzamide], the IC50 was 110 nM in test [1] (setting [2]) and 90 nM with SK-BR-3 cells (setting [3]).
For `Cn1cc(-c2cn(-c3ccnc4c3c(C(F)(F)F)nn4-c3ccc(C(N)=O)c(N)c3)cn2)cn1` [Example 157, 2-Amino-4-{4-(4-(1-methyl-1H-pyrazol-4-yl)-1H-imidazol-1-yl)-3-(trifluoromethyl)-1H-pyrazolo[3,4-b]pyridin-1-yl}benzamide], the 50% inhibitory concentration (IC50) in test [1] (setting [2]) amounted to 130 nM; in the test on SK-BR-3 cells (setting [3]), 190 nM.
On the same counts, the results for `NC(=O)c1ccc(-n2nc(C(F)(F)F)c3c(-n4cnc(-c5cccnc5)c4)ccnc32)cc1N` [Example 176, 2-Amino-4-{4-(4-(pyridin-3-yl)-1H-imidazol-1-yl)-3-(trifluoromethyl)-1H-pyrazolo[3,4-b]pyridin-1-yl}benzamide] are 420 nM and 410 nM.
Regarding “2-(Trans-4-methylsulfonamidocyclohexylamino)-4-{3-methyl-4-(quinolin-3-yl)-1H-pyrrolo[2,3-b]pyridin-1-yl}benzamide [Example 63]”, the values for the concentration for half-maximal inhibition (IC50) (in test [1]; with SK-BR-3 cells) were 470 nM and 170 nM, respectively.
